Experimental data taken from patent US12268683B2, “Compounds and methods for synergistic activation of M channels” (THE REGENTS OF THE UNIVERSITY OF CALIFORNIA, priority 2018, dated 2025).

Experiments:
KCNQ2-W236L/KCNQ3 = KCNQ2-W236L/KCNQ3 (Homo sapiens, UniProt O43525+O43526, W236L); assay: TEVC of KCNQ2-W236L/KCNQ3 channels; assay type: cell-based
Source text: As previously described (12), we generated cRNA transcripts encoding human KCNA1, KCNE1, KCNE2, KCNE3, KCNQ1, KCNQ2, KCNQ3, KCNQ4 or KCNQ5 by in vitro transcription using the T7 polymerase mMessage mMachine kit (Thermo Fisher Scientific), after vector linearization, from cDNA sub-cloned into plasmids incorporating Xenopus laevis β-globin 5′ and 3′ UTRs flanking the coding region to enhance translation and cRNA stability. We quantified cRNA by spectrophotometry. We generated mutant KCNQ2 and KCNQ3 cDNAs by site-directed mutagenesis with a QuikChange kit (Stratagene, San Diego, Calif.) and prepared the cRNAs as above. We injected defolliculated stage V and VI Xenopus laevis oocytes (Ecocyte Bioscience, Austin, Tex. and Xenoocyte, Dexter, Mich., US) with KCNE and/or KCNQ cRNAs (5-20 ng). We incubated the oocytes at 16° C. in Barth's saline solution (Ecocyte) containing penicillin and streptomycin, with daily washing, for 3-5 days prior to two-electrode voltage-clamp (TEVC) recording.
We performed TEVC at room temperature using an OC-725C amplifier (Warner Instruments, Hamden, Conn.) and pClamp10 software (Molecular Devices, Sunnyvale, Calif.) 2-5 days after cRNA injection as described in the section above. For recording, we placed the oocytes in a small-volume oocyte bath (Warner) and viewed them with a dissection microscope. We sourced chemicals from Sigma unless otherwise stated. We studied effects of 1% cilantro extract and of nine compounds previously identified in cilantro extract. Vanillic acid and 3,4-Dihydroxybenzoic acid were each solubilized in 100% ethanol at a stock concentration of 100 mM; the other compounds were solubilized directly in bath solution. We initially screened for KCNQ2/3 channel activity using 100 μM concentrations of each of the nine components, then conducted dose responses where appropriate. […] We recorded currents in response to voltage pulses between −120 or −80 mV and +40 mV at 20 mV intervals from a holding potential of −80 mV, to yield current-voltage relationships, current magnitude, and for quantifying activation rate. We analyzed data using Clampfit (Molecular Devices) and Graphpad Prism software (GraphPad, San Diego, Calif., USA); values are stated as mean±SEM. […]
We generated cRNA transcripts encoding human KCNQ1, KCNQ2, KCNQ3, KCNQ4, KCNQ5 or GLRA1 (NM_001146040) (GenScript, Piscataway, N.J., USA) by in vitro transcription using the T7 polymerase mMessage mMachine kit (Thermo Fisher Scientific), after vector linearization, from cDNA sub-cloned into plasmids incorporating Xenopus laevis β-globin 5′ and 3′ UTRs flanking the coding region to enhance translation and cRNA stability. We quantified cRNA by spectrophotometry. […]

KCNQ1 = KCNQ1 (Homo sapiens, UniProt P51787); assay: TEVC of homomeric KCNQ1 expressed in Xenopus oocytes; assay type: cell-based
Source text: cRNA transcripts encoding human KCNA1, KCNQ1, KCNQ2, KCNQ3, KCNQ4, or KCNQ5 were generated by in vitro transcription using the T7 polymerase message machine kit (Thermo Fisher Scientific), after vector linearization, from cDNA sub-cloned into plasmids incorporating X. laevis β-globin 5′ and 3′ UTRs flanking the coding region to enhance translation and cRNA stability. cRNA was quantified by spectrophotometry. Mutant cDNAs were generated by site-directed mutagenesis using a QuikChange kit according to manufacturer's protocol (Stratagene, San Diego, Calif.) and corresponding cRNAs prepared as above. Defolliculated stage V and VI X. laevis oocytes (Ecocyte Bioscience, Austin, Tex.) were injected with Kv channel a subunit cRNAs (10 ng total per oocyte). Oocytes were incubated at 16° C. in Barth's saline solution (Ecocyte) containing penicillin and streptomycin, with daily washing, for 3-5 days prior to two-electrode voltage-clamp (TEVC) recording.
Oocytes were placed in a small-volume oocyte bath (Warner) and viewed with a dissection microscope. Chemicals were sourced from Sigma. Bath solution was (in mM): 96 NaCl, 4 KCl, 1 MgCl2, 1 CaCl2. 10 HEPES (pH 7.6). […] MTX (DMSO), sorbic acid (ethanol), and glutaconic acid (molecular grade H2O) were stored at −20° C. as 1 M stocks. Oleamide was stored as a 1 mM stock in ethanol at 4° C. Palmitic acid was conjugated with bovine serum albumin as a 1 mM stock and stored at −20° C. All compounds were diluted to working concentrations each experimental day. All compounds were introduced to the recording bath via gravity perfusion at a constant flow of 1 ml/min for 3 min prior to recording. Pipettes were of 1-2 MΩ resistance when filled with 3 M KCl. Currents were recorded in response to pulses between −80 and +40 mV at 20 mV intervals, or a single pulse to +40 mV, from a holding potential of −80 mV, to yield current-voltage relationships, current magnitude, and for quantifying activation rate. […]

| SMILES | effect on KCNQ2-W236L/KCNQ3 (in words) (KCNQ2-W236L/KCNQ3) | effect on KCNQ1 (in words) (KCNQ1) | potency reduction by KCNQ2-W236L relative to KCNQ3-W265L mutation (KCNQ2-W236L/KCNQ3) | maximal shift in ΔV0.5activation (KCNQ2-W236L/KCNQ3; (E)-2-dodecenal) | EC50 (KCNQ2-W236L/KCNQ3; ΔV0.5activation, read-out: EC50 of (E)-2-dodecenal) |
| --- | --- | --- | --- | --- | --- |
| CS(=O)(=O)N(CC(=O)O)c1cccc(F)c1 [3FMSG] | independent of KCNQ2-W236 | negligible effects | – | – | – |
| CCCCCCCCC/C=C/C=O [(E)-2-dodecenal] | – | sensitive | 20 fold | −9 mV | 5.07 ± 0.5 µM |
